In brackets after ≈: the same amount, converted by molar mass.
Key:
Assay type in all cases: cell-based
[1] = test system: Acinetobacter baumannii ATCC 19606; test: MIC, CLSI broth microdilution; conditions: ATCC19606
In short: (§1)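 The read-out is the minimum inhibitory concentration determined by CLSI broth microdilution. Final compound levels ran from 16 to 0.0125 μg/mL in two-fold steps against about 5×10^5 CFU/mL of genotypically characterized bacteria.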

[2] = test system: Citrobacter freundii species complex OXA-181; test: MIC, CLSI broth microdilution; conditions: Citrobacter freundii species complex, OXA-181; read-out: MIC
In short: as §1

[3] = test system: Enterobacter cloacae species complex NDM-1; test: MIC, CLSI broth microdilution
In short: as §1

[4] = test system: Escherichia coli ATCC 25922; test: MIC, CLSI broth microdilution; conditions: ATCC25922
In short: as §1

[5] = test system: Escherichia coli CMY-2; test: MIC, CLSI broth microdilution; conditions: CMY2
In short: as §1

[6] = test system: Escherichia coli CTX-M-15; test: MIC, CLSI broth microdilution; conditions: CTXM15
In short: as §1

[7] = test system: Escherichia coli SHV-12; test: MIC, CLSI broth microdilution; conditions: SHV12
In short: as §1

[8] = test system: Klebsiella aerogenes VIM-1, SHV-12; test: MIC, CLSI broth microdilution
In short: as §1

[9] = test system: Klebsiella oxytoca KPC-2, TEM-1; test: MIC, CLSI broth microdilution; conditions: KPC-2, TEM-1, read-out: MIC
In short: as §1

[10] = test system: Klebsiella pneumoniae KPC-2; test: MIC, CLSI broth microdilution; conditions: KPC2
In short: as §1

[11] = test system: Klebsiella pneumoniae KPC-3; test: MIC, CLSI broth microdilution; conditions: KPC3, KPC-3, read-out: MIC
In short: as §1

[12] = test system: Klebsiella pneumoniae OXA-163, OXA-1_OXA-30, SHV-1, TEM-1; test: MIC, CLSI broth microdilution
In short: (§2)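 Two subcultures from frozen stock preceded testing. Final inoculum: 5×10^5 CFU/mL. Final compound concentrations: 16-0.0125 μg/mL, doubling dilutions, CLSI broth method.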

[13] = test system: Klebsiella pneumoniae OXA-48, SHV-1; test: MIC, CLSI broth microdilution
In short: as §2

[14] = test system: Klebsiella pneumoniae SHV-12; test: MIC, CLSI broth microdilution; conditions: SHV12, SHV-12, read-out: MIC
In short: as §1

[15] = test system: Pseudomonas aeruginosa ATCC 27853; test: MIC, CLSI broth microdilution; conditions: ATCC27853
In short: as §1

[16] = test system: Pseudomonas aeruginosa AmpC overexpressed; test: MIC, CLSI broth microdilution
In short: as §2

[17] = test system: Pseudomonas aeruginosa OprD negative; test: MIC, CLSI broth microdilution
In short: as §2

[18] = test system: Serratia marcescens AmpC overexpressed; test: MIC, CLSI broth microdilution
In short: as §2

[19] = test system: Serratia marcescens SME-2; test: MIC, CLSI broth microdilution; conditions: SME2
In short: as §1

[20] = test system: Escherichia coli CMY-DHA; test: MIC against CMY-DHA producing strains, compound alone
Description: (§3) Gram-negative and Gram-positive bacterial strains used during the in vitro minimum inhibitory concentration (MIC) determination were obtained either from the American Type Culture Collection (ATCC) or from clinical specimens. All strains were characterized genotypically and the respective antibiotic resistance markers for each strain were identified.
(§4) Isolates were sub-cultured onto appropriate media and stocked in skim milk at −80° C. Following two subcultures from frozen stock, in vitro antimicrobial susceptibility testing was performed using the Clinical and Laboratory Standards Institute (CLSI) broth microdilution method. Briefly, fresh cultures were suspended in culture media to give a final stock inoculum size of 5×10^7 colony forming units per milliliter of broth (CFU/mL). Test compounds were prepared at a stock solution concentration equal to 128 μg/mL, then diluted to give a final an initial working concentration of 32 μg/mL. 100 μL of the stock solutions were added to the first wells in a 96-well plate and were then diluted using a 2-fold dilution method to give a range of 32-0.025 μg/mL. 100 μL of the bacterial suspensions were then added to the 96-well plates to give a final working inoculum size of 5×10^5 CFU/mL. The final compound concentration range was 16-0.0125 μg/mL. […] MICs for comparator agents were determined using custom-designed, in-house prepared 96-well broth microdilution panels.

[21] = test system: Klebsiella pneumoniae CMY-DHA; test: as above; conditions: row r32
Description: as §3, §4

[22] = test system: Proteus mirabilis CMY-DHA; test: as above; conditions: row r36
Description: as §3, §4

[23] = test system: Citrobacter freundii species complex Elevated AmpC; test: Synergistic activity: MIC in the presence of Avibactam; conditions: row r16, in the presence of Avibactam @ 4 μg/mL
Description: as §4
(§5) The same method used to test the activity of the claimed compounds was used to determine their synergistic activity when combined with a β-lactamase inhibitor except that either a fixed concentration or fixed ratio of a β-lactamase inhibitor was added to the 96-well plates prior to adding the bacteria cultures. Synergistic activity was defined as the reduction of MIC of a given compound when tested using the β-lactamase inhibitor versus testing the compound in the absence of a β-lactamase inhibitor.

[24] = test system: Escherichia coli CMY-DHA; test: as above
Description: as §4, §5

[25] = test system: Klebsiella pneumoniae CMY-DHA; test: as above; conditions: row r32, in the presence of Avibactam @ 4 μg/mL
Description: as §4, §5

[26] = strain of row r26, in the presence of Avibactam @ 4 μg/mL
[27] = strain of row r27, in the presence of Avibactam @ 4 μg/mL
[28] = strain of row r28, in the presence of Avibactam @ 4 μg/mL
[29] = strain of row r29, in the presence of Avibactam @ 4 μg/mL
[30] = strain of row r30, in the presence of Avibactam @ 4 μg/mL
[31] = strain of row r31, in the presence of Avibactam @ 4 μg/mL
[32] = strain of row r34, in the presence of Avibactam @ 4 μg/mL
[33] = strain of row r35, in the presence of Avibactam @ 4 μg/mL

SMILES	MIC [1]	MIC [2]	MIC [3]	MIC [4]	MIC [5]	MIC [6]	MIC [7]	MIC [8]	MIC [9]	MIC [10]	MIC [11]	MIC [12]	MIC [13]	MIC [14]	MIC [15]	MIC [16]	MIC [17]	MIC [18]	MIC [19]	MIC ([20]; strain of row r26)	further results
Nc1nc(/C(=N/OC2(C(=O)O)CCOCC2)C(=O)N[C@H]2CON(C3(C(=O)O)C[C@H](N4C(=O)c5cc(O)c(O)nc5C4=O)C(=O)O3)C2=O)cs1 (stereo partly drawn) [Cmpd 26, 4-({(Z)-[1-(2-amino-1,3-thiazol-4-yl)-2-({(4S)-2-[(4S)-2-carboxy-4-(2,3-dihydroxy-5,7-dioxo-5,7-dihydro-6H-pyrrolo[3,4-b]pyridin-6-yl)-5-oxooxolan-2-yl]-3-oxo-1,2-oxazolidin-4-yl}amino)-2-oxoethylidene]amino}oxy)oxane-4-carboxylic acid]	1 µg/mL (≈ 1.42 µM)	0.25 µg/mL (≈ 0.354 µM)	2 µg/mL (≈ 2.83 µM)	0.5 µg/mL (≈ 0.709 µM)	4 µg/mL (≈ 5.67 µM)	4 µg/mL (≈ 5.67 µM)	4 µg/mL (≈ 5.67 µM)	0.25 µg/mL (≈ 0.354 µM)	0.0149 µg/mL (≈ 0.0211 µM)	0.0149 µg/mL (≈ 0.0211 µM)	0.12 µg/mL (≈ 0.17 µM)	0.12 µg/mL (≈ 0.17 µM)	0.0149 µg/mL (≈ 0.0211 µM)	0.06 µg/mL (≈ 0.085 µM)	2 µg/mL (≈ 2.83 µM)	4 µg/mL (≈ 5.67 µM)	2 µg/mL (≈ 2.83 µM)	0.5 µg/mL (≈ 0.709 µM)	0.5 µg/mL (≈ 0.709 µM)	2 µg/mL (≈ 2.83 µM)	MIC ([20]; strain of row r27): 0.25 µg/mL (≈ 0.354 µM); MIC ([20]; strain of row r28): 1 µg/mL (≈ 1.42 µM); MIC ([20]; strain of row r29): 2 µg/mL (≈ 2.83 µM); MIC ([20]; strain of row r30): 1 µg/mL (≈ 1.42 µM); MIC ([20]; strain of row r31): 8 µg/mL (≈ 11.3 µM); MIC ([20]; strain of row r34): 1 µg/mL (≈ 1.42 µM); MIC ([20]; strain of row r35): 1 µg/mL (≈ 1.42 µM); MIC [21]: 4 µg/mL (≈ 5.67 µM); MIC [22]: 4 µg/mL (≈ 5.67 µM); MIC [23]: 0.25 µg/mL; MIC [24, 26]: 0.25 µg/mL; MIC [24, 27]: 0.03 µg/mL; MIC [24, 28]: 0.06 µg/mL; MIC [24, 29]: 0.5 µg/mL; MIC [24, 30]: <=0.008 μg/mL; MIC [24, 31]: 0.5 µg/mL; MIC [24, 32]: 0.06 µg/mL; MIC [24, 33]: 0.06 µg/mL; MIC [25]: 0.5 µg/mL
Nc1nc(/C(=N/OC2(C(=O)O)CC2)C(=O)N[C@H]2CON(C3(C(=O)O)C[C@H](N4C(=O)c5cc(O)c(O)cc5C4=O)C(=O)O3)C2=O)ns1 (stereo partly drawn) [Cmpd 18, (4S)-2-[(4S)-4-{[(2Z)-2-(5-amino-1,2,4-thiadiazol-3-yl)-2-{[(1-carboxycyclopropyl)oxy]imino}acetyl]amino}-3-oxo-1,2-oxazolidin-2-yl]-4-(5,6-dihydroxy-1,3-dioxo-1,3-dihydro-2H-isoindol-2-yl)-5-oxooxolane-2-carboxylic acid]	0.25 µg/mL (≈ 0.378 µM)	0.06 µg/mL (≈ 0.0907 µM)	0.5 µg/mL (≈ 0.756 µM)	0.12 µg/mL (≈ 0.181 µM)	2 µg/mL (≈ 3.02 µM)	1 µg/mL (≈ 1.51 µM)	1 µg/mL (≈ 1.51 µM)	0.5 µg/mL (≈ 0.756 µM)	0.0149 µg/mL (≈ 0.0225 µM)	0.06 µg/mL (≈ 0.0907 µM)	0.06 µg/mL (≈ 0.0907 µM)	0.12 µg/mL (≈ 0.181 µM)	0.0149 µg/mL (≈ 0.0225 µM)	0.03 µg/mL (≈ 0.0454 µM)	0.12 µg/mL (≈ 0.181 µM)	1 µg/mL (≈ 1.51 µM)	0.12 µg/mL (≈ 0.181 µM)	0.5 µg/mL (≈ 0.756 µM)	0.06 µg/mL (≈ 0.0907 µM)	0.5 µg/mL (≈ 0.756 µM)	MIC ([20]; strain of row r27): 0.12 µg/mL (≈ 0.181 µM); MIC ([20]; strain of row r28): 0.25 µg/mL (≈ 0.378 µM); MIC ([20]; strain of row r29): 1 µg/mL (≈ 1.51 µM); MIC ([20]; strain of row r30): 0.5 µg/mL (≈ 0.756 µM); MIC ([20]; strain of row r31): 2 µg/mL (≈ 3.02 µM); MIC ([20]; strain of row r34): 0.5 µg/mL (≈ 0.756 µM); MIC ([20]; strain of row r35): 0.5 µg/mL (≈ 0.756 µM); MIC [21]: 1 µg/mL (≈ 1.51 µM); MIC [22]: 1 µg/mL (≈ 1.51 µM); MIC [23]: 0.03 µg/mL; MIC [24, 26]: 0.03 µg/mL; MIC [24, 27]: <=0.008 μg/mL; MIC [24, 28]: 0.03 µg/mL; MIC [24, 29]: 0.06 µg/mL; MIC [24, 30]: <=0.008 μg/mL; MIC [24, 31]: 0.06 µg/mL; MIC [24, 32]: 0.015 µg/mL; MIC [24, 33]: 0.015 µg/mL; MIC [25]: 0.25 µg/mL
Nc1nc(/C(=N/OC2(C(=O)O)CC2)C(=O)N[C@H]2CON(C3(C(=O)O)C[C@H](N4Cc5cc(O)c(O)cc5C4=O)C(=O)O3)C2=O)cs1 (stereo partly drawn) [Cmpd 28, (4S)-2-[(4S)-4-{[(2Z)-2-(2-amino-1,3-thiazol-4-yl)-2-{[(1-carboxycyclopropyl)oxy]imino}acetyl]amino}-3-oxo-1,2-oxazolidin-2-yl]-4-(5,6-dihydroxy-1-oxo-1,3-dihydro-2H-isoindol-2-yl)-5-oxooxolane-2-carboxylic acid]	0.12 µg/mL (≈ 0.186 µM)	0.12 µg/mL (≈ 0.186 µM)	2 µg/mL (≈ 3.09 µM)	0.25 µg/mL (≈ 0.387 µM)	8 µg/mL (≈ 12.4 µM)	1 µg/mL (≈ 1.55 µM)	0.5 µg/mL (≈ 0.773 µM)	0.12 µg/mL (≈ 0.186 µM)	0.0149 µg/mL (≈ 0.023 µM)	0.0149 µg/mL (≈ 0.023 µM)	0.25 µg/mL (≈ 0.387 µM)	0.25 µg/mL (≈ 0.387 µM)	0.0149 µg/mL (≈ 0.023 µM)	0.06 µg/mL (≈ 0.0928 µM)	1 µg/mL (≈ 1.55 µM)	2 µg/mL (≈ 3.09 µM)	0.5 µg/mL (≈ 0.773 µM)	0.25 µg/mL (≈ 0.387 µM)	0.12 µg/mL (≈ 0.186 µM)	4 µg/mL (≈ 6.19 µM)	MIC ([20]; strain of row r27): 0.25 µg/mL (≈ 0.387 µM); MIC ([20]; strain of row r28): 0.5 µg/mL (≈ 0.773 µM); MIC ([20]; strain of row r29): 4 µg/mL (≈ 6.19 µM); MIC ([20]; strain of row r30): 1 µg/mL (≈ 1.55 µM); MIC ([20]; strain of row r31): 8 µg/mL (≈ 12.4 µM); MIC ([20]; strain of row r34): 1 µg/mL (≈ 1.55 µM); MIC ([20]; strain of row r35): 2 µg/mL (≈ 3.09 µM); MIC [21]: 2 µg/mL (≈ 3.09 µM); MIC [22]: 2 µg/mL (≈ 3.09 µM); MIC [23]: 0.12 µg/mL; MIC [24, 26]: 0.12 µg/mL; MIC [24, 27]: <=0.008 μg/mL; MIC [24, 28]: 0.06 µg/mL; MIC [24, 29]: 0.12 µg/mL; MIC [24, 30]: <=0.008 μg/mL; MIC [24, 31]: 0.12 µg/mL; MIC [24, 32]: 0.015 µg/mL; MIC [24, 33]: 0.03 µg/mL; MIC [25]: 0.12 µg/mL
